pIC50: −log10 of the molar value.

The target in the test is HCV replicon. The experiment in a line: HCV replicon assay (luciferase). The format is cell-based, Hepatitis C virus (HCV). The conditions noted are these: 5-2 Luc replicon cells, 24 hours with compound, luciferase emission; first symbol of Replicon/Western. The text has this:
In one embodiment, the inhibitory activity of the compounds can be confirmed in a replicon assay that assesses the ability of a test compound to block or inhibit HCV replication in replicon cells. One example of a suitable replicon assay is the liver cell-line Huh 7-based replicon assay described in Lohmann et al., 1999, Science 285:110-113. A specific example of this replicon assay which utilizes luciferase translation is provided in the Examples Section. In one embodiment of this assay, the amount of test compound that yields a 50% reduction in translation as compared to a control cell (IC50) may be determined.
The inhibitory activity of certain exemplary compounds of the invention was confirmed using an HCV replicon assay. The HCV replicon can include such features as the HCV 5′ untranslated region including the HCV IRES, the HCV 3′ untranslated region, selected HCV genes encoding HCV polypeptides, selectable markers, and a reporter gene such as luciferase, GFP, etc. In the assay, actively dividing 5-2 Luc replicon-comprising cells (obtained from Rolf Bartenschlager; see Lohmann et al., 1999, Science 285:110-113) were seeded at a density of between about 5,000 and 7,500 cells/well onto 96 well plates (about 90 μl of cells per well) and incubated at 37° C. and 5% CO2 for 24 hours. Then, the test compound (in a volume of about 10 μl) was added to the wells at various concentrations and the cells were incubated for an additional 24 hours before luciferase assay. The media was aspirated from each well and Bright-Glo (Promega, Madison, Wis.) luciferase assay reagents were added to each well according to the manufacturer's instructions. Briefly, the Bright-Glo reagent was diluted 1:1 with PBS and 100 μl of diluted reagent was added to each well. After 5 min of incubation at room temperature, luciferin emission was quantified with a luminometer. In this assay, the amount of test compound that yielded a 50% reduction in luciferase emission (IC50) was determined.

By pIC50 is commonly meant the negative decadic logarithm of the IC50, by convention in mol/L. For the compound `CN1CCN(c2cccc(C(F)(F)F)c2-c2cc(-c3cccc(NC(=O)C(Cl)Cl)c3)on2)CC1` [Compound 109, 2,2-Dichloro-N-[3-[3-[2-trifluoromethyl-6-(4-methylpiperazino)phenyl]-5-isoxazolyl]-phenyl] Acetamide], the pIC50 was not below 5.00.

As for `COc1cccc(F)c1-c1cc(-c2cccc(NC(=O)C(Cl)Cl)c2)on1` [Compound 43, 2,2-Dichloro-N-[3-[3-(2-fluoro-6-methoxyphenyl)-5-isoxazolyl]phenyl] Acetamide], the pIC50 was not below 5.00.

As to `O=C(Nc1cccc(-c2cc(-c3c(Cl)cccc3Cl)no2)c1)C(Br)Br` [Compound 29, 2,2-Dibromo-N-[3-[3-(2,6-dichlorophenyl)-5-isoxazolyl]phenyl] Acetamide], the negative-log IC50 (pIC50) is not below 5.00.

In the case of `CC(C)c1cccc(Cl)c1-c1cc(-c2cccc(NC(=O)C(Cl)Cl)c2)on1` [Compound 39, 2,2-Dichloro-N-[3-[3-(2-chloro-6-isopropylphenyl)-5-isoxazolyl]phenyl] Acetamide], the pIC50 was not below 5.00.

Turning to `Cc1ccc(Cl)c(-c2cc(-c3cccc(NC(=O)C(Cl)Cl)c3)on2)c1F` [Compound 51, 2,2-Dichloro-N-[3-[3-(6-chloro-2-fluoro-3-methylphenyl)-5-isoxazolyl]phenyl] Acetamide], the negative-log IC50 (pIC50) was not below 5.00.

With `CN1CCN(c2cccc(Cl)c2-c2cc(-c3cccc(NC(=O)C(Cl)Cl)c3)on2)CC1` [Compound 99, 2,2-Dichloro-N-[3-[3-[2-chloro-6-(4-methylpiperazino)phenyl]-5-isoxazolyl]phenyl] Acetamide], the pIC50 is not below 5.00.

For the compound `COc1cccc(C)c1-c1cc(-c2cccc(NC(=O)C(Cl)Cl)c2)on1` [Compound 91, 2,2-Dichloro-N-[3-[3-(2-methoxy-6-methylphenyl)-5-isoxazolyl]phenyl] Acetamide], the pIC50 was not below 5.00.

`CCOc1ccccc1-c1cc(-c2cccc(NC(=O)C(Cl)Cl)c2)on1` [Compound 61, 2,2-Dichloro-N-[3-[3-(2-ethoxyphenyl)-5-isoxazolyl]phenyl] Acetamide]: the pIC50 is not below 5.00.

In the case of `O=C(Nc1cccc(-c2cc(-c3c(Cl)cccc3-n3ccnc3)no2)c1)C(Cl)Cl` [Compound 117, 2,2-Dichloro-N-[3-[3-[2-chloro-6-(N-imidazolyl)phenyl]-5-isoxazolyl]phenyl] Acetamide], the negative logarithm of the IC50 (pIC50) was not below 5.00.

Take `O=C(Nc1cccc(-c2cc(-c3c(Cl)cccc3Cl)no2)c1)C(F)F` [Compound 145, 2,2-Difluoro-N-[3-[3-(2,6-dichlorophenyl)-5-isoxazolyl]phenyl] Acetamide]: the pIC50 was less than 5.00.

Take `CCCCc1cccc(Cl)c1-c1cc(-c2cccc(NC(=O)C(Cl)Cl)c2)on1` [Compound 103, 2,2-Dichloro-N-[3-[3-(2-chloro-6-n-butylphenyl)-5-isoxazolyl]phenyl] Acetamide]: the pIC50 was not below 5.00.

As to `O=C(Nc1cccc(-c2cc(-c3c(Cl)cc(Cl)cc3OCCN3CCOCC3)no2)c1)C(Cl)Cl` [Compound 143, 2,2-Dichloro-N-[3-[3-[2,4-dichloro-6-(N-morpholino-2-ethyleneoxy)phenyl]-5-isoxazolyl]-phenyl] Acetamide], the negative logarithm of the IC50 (pIC50) was less than 5.00.

As to `O=C(Nc1cccc(-c2cc(-c3c(F)ccc(F)c3Cl)no2)c1)C(Cl)Cl` [Compound 53, 2,2-Dichloro-N-[3-[3-(2-chloro-3,6-difluorophenyl)-5-isoxazolyl]phenyl] Acetamide], the pIC50 was not below 5.00.

For `O=C(Nc1cccc(-c2cc(-c3c(F)cccc3I)no2)c1)C(Cl)Cl` [Compound 49, 2,2-Dichloro-N-[3-[3-(2-fluoro-6-iodophenyl)-5-isoxazolyl]phenyl] Acetamide], the pIC50 is not below 5.00.

`COc1cccc(Cl)c1-c1cc(-c2cccc(NC(=O)C(Cl)Cl)c2)on1` [Compound 81, 2,2-Dichloro-N-[3-[3-(2-chloro-6-methoxyphenyl)-5-isoxazolyl]phenyl] Acetamide]: the pIC50 was not below 5.00.

Consider `CC(C)c1ccccc1-c1cc(-c2cccc(NC(=O)C(Cl)Cl)c2)on1` [Compound 63, 2,2-Dichloro-N-[3-[3-(2-isopropylphenyl)-5-isoxazolyl]phenyl] Acetamide], for which the pIC50 was not below 5.00.

Consider `O=C(Nc1cccc(-c2cc(-c3ccccc3OCc3ccccc3)no2)c1)C(Cl)Cl` [Compound 161, 2,2-Dichloro-N-[3-[3-(2-benzyloxyphenyl)-5-isoxazolyl]phenyl] Acetamide], for which the pIC50 is less than 5.00.

With `O=C(Nc1cc(-c2cc(-c3c(Cl)cccc3Cl)no2)ccc1N1CCOCC1)C(Cl)Cl` [Compound 169], the negative-log IC50 (pIC50) was less than 5.00.

On to `O=C(Nc1cccc(-c2cc(-c3c(O)cccc3Cl)no2)c1)C(Cl)Cl` [Compound 83, 2,2-Dichloro-N-[3-[3-(2-chloro-6-hydroxyphenyl)-5-isoxazolyl]phenyl] Acetamide], for which the pIC50 is not below 5.00.

In the case of `CC(C)c1cccc(C(C)C)c1-c1cc(-c2cccc(NC(=O)C(Cl)Cl)c2)on1` [Compound 121, 2,2-Dichloro-N-[3-[3-(2,6-diisopropylphenyl)-5-isoxazolyl]phenyl] Acetamide], the negative-log IC50 (pIC50) is not below 5.00.

`Cc1ccc(-c2cc(-c3c(Cl)cccc3Cl)no2)cc1NC(=O)C(Cl)Cl` [Compound 165, 2,2-Dichloro-N-[3-[3-(2,6-dichlorophenyl)-5-isoxazolyl]-6-methylphenyl] Acetamide]: the pIC50 is less than 5.00.

For `O=C(Nc1cccc(-c2cc(-c3ccccc3-c3ccccc3)no2)c1)C(Cl)Cl` [Compound 123, 2,2-Dichloro-N-[3-[3-(2-phenyl)phenyl-5-isoxazolyl]phenyl] Acetamide], the pIC50 is not below 5.00.

As to `O=C(Nc1cccc(-c2cc(-c3c(O)cccc3C(F)(F)F)no2)c1)C(Cl)Cl` [Compound 35, 2,2-Dichloro-N-[3-[3-(2-hydroxy-6-trifluoromethylphenyl)-5-isoxazolyl]phenyl] Acetamide], the negative logarithm of the IC50 (pIC50) was not below 5.00.

With `O=C(Nc1cccc(-c2cc(-c3ccccc3OC(F)F)no2)c1)C(Cl)Cl` [Compound 45, 2,2-Dichloro-N-[3-[3-(2-difluoromethoxyphenyl)-5-isoxazolyl]phenyl] Acetamide], the negative logarithm of the IC50 (pIC50) was not below 5.00.

Take `O=C(Nc1cccc(-c2cc(-c3cc(C(F)(F)F)ccc3Cl)no2)c1)C(Cl)Cl` [Compound 141, 2,2-Dichloro-N-[3-[3-(2-chloro-5-trifluoromethylphenyl)-5-isoxazolyl]phenyl] Acetamide]: the negative logarithm of the IC50 (pIC50) is less than 5.00.

As for `CN(C)c1cc(Cl)c(-c2cc(-c3cccc(NC(=O)C(Cl)Cl)c3)on2)c(Cl)c1` [Compound 65, 2,2-Dichloro-N-[3-[3-(2,6-dichloro-4-dimethylaminophenyl)-5-isoxazolyl]phenyl] Acetamide], the negative-log IC50 (pIC50) is not below 5.00.

For `O=C(Nc1cccc(-c2cc(-c3c(Cl)cc(OCCCN4CCOCC4)cc3Cl)no2)c1)C(Cl)Cl` [Compound 73, 2,2-Dichloro-N-[3-[3-[2,6-dichloro-4-(N-morpholinopropyleneoxy)phenyl]-5-isoxazolyl]-phenyl] Acetamide], the pIC50 was not below 5.00.

With `O=C(O)c1ccccc1-c1cc(-c2cccc(NC(=O)C(Cl)Cl)c2)on1` [Compound 157, 2,2-Dichloro-N-[3-[3-(2-carboxyphenyl)-5-isoxazolyl]phenyl] Acetamide], the pIC50 was less than 5.00.

For the compound “2,2-Dichloro-N-[3-[3-[2,6-dimethyl-4-(N-morpholino-2-ethyleneoxy)phenyl]-5-isoxazolyl]phenyl] Acetamide [Compound 23]”, the pIC50 is not below 5.00.

As for `Cc1ccc(F)c(-c2cc(-c3cccc(NC(=O)C(Cl)Cl)c3)on2)c1F` [Compound 149, 2,2-Dichloro-N-[3-[3-(2,6-difluoro-3-methylphenyl)-5-isoxazolyl]phenyl] Acetamide], the pIC50 is less than 5.00.

Take `O=C(Nc1cccc(-c2cc(-c3c(Cl)cccc3OCCN3CCOCC3)no2)c1)C(Cl)Cl` [Compound 95, 2,2-Dichloro-N-[3-[3-[2-chloro-6-(N-morpholino-2-ethyleneoxy)phenyl]-5-isoxazolyl]-phenyl] Acetamide]: the pIC50 is not below 5.00.

In the case of `O=C(Nc1ccc(S(=O)(=O)NN2CCOCC2)c(-c2cc(-c3c(Cl)cccc3Cl)no2)c1)C(Cl)Cl` [Compound 107, 2,2-Dichloro-N-[3-[3-(2,6-dichlorophenyl)-5-isoxazolyl]-4-(N-morpholinosulfamoyl)-phenyl] Acetamide], the pIC50 is not below 5.00.

For the compound `O=C(Nc1cccc(-c2cc(-c3c(Cl)cc(OCCN4CCCCC4)cc3Cl)no2)c1)C(Cl)Cl` [Compound 125, 2,2-Dichloro-N-[3-[3-[2,6-dichloro-4-(N-piperidinylethylenoxy)phenyl]-5-isoxazolyl]-phenyl] Acetamide], the pIC50 was not below 5.00.

Consider `O=C(Nc1cccc(-c2cc(-c3c(Cl)cccc3C3CC3)no2)c1)C(Cl)Cl` [Compound 79, 2,2-Dichloro-N-[3-[3-(2-chloro-6-cyclopropylphenyl)-5-isoxazolyl]phenyl] Acetamide], for which the negative-log IC50 (pIC50) was not below 5.00.

The values are drawn from patent US6759538B2, “Substituted diphenyl heterocycles useful for treating HCV infection” (priority 2001, dated 2004).
